# Columns and labels:
# [1] = aqueous solubility of crystalline forms; format: physicochemical
# [2] = solid-state storage stability (temperature/humidity, HIL, filler excipients); format: physicochemical
# Excerpt: (§1) Based on the equilibrium RH studies, N-2 could undergo hydrate formation during handling, formulation or storage.
# drying studies for H-1 = format: physicochemical
# Excerpt: as §1
# moisture sorption study = format: physicochemical
# Excerpt: (§2) The available data establish the following RH range for equilibrium N-2/H-1 conversion: 25%<RHeq<=30%. Wetcakes subjected to RH<30% are subject to dehydration, kinetic factors notwithstanding.
# [3] = slurry conversion studies in butanol/water mixtures (N-2/H-1); format: physicochemical; conditions: N-2 versus H-1, butanol/water slurry
# Excerpt: as §2
# [4] = dehydration/heating of monohydrate H-1; format: physicochemical
# [5] = solvate stability by single crystal structure determination at different temperatures; format: physicochemical; conditions: solvent site fully occupied at −50° C., still 50% occupied at +82° C.
# Excerpt: In addition to the monohydrate, Compound I also forms solvates with a large number of organic solvents. The type 3 family of solvates (represented by an EtOAc solvate, form EA.5-3; a PrOAc solvate, form PA.5-3; a MeCN solvate, form AN-3; and a CH2CL2 solvate, DC-3) have a large hydrophobic clathrate channel (V˜215 Å^3) parallel to the crystallographic a repeat. […] The single crystal structures of an ethanol solvate (E-8), an isopropanol solvate (IPA-10), a second acetonitrile form (AN-11) and three mixed solvates (SA-9, SB-12, SC-13) with THF and water have been determined.
# [6] = monkey PK crossover study; format: in vivo; conditions: monkey PK crossover study (n=4)
# Excerpt: as §1
# [7] = slurry conversion studies at 25 and 50° C. and melting data (relative polymorph stability); format: physicochemical
# [8] = exposed to HIL for at least 1 week
# [9] = stored at 50° C./75% RH open and closed for at least 4 weeks
smiles,measurement,setting,value
"Cc1ccc(C(=O)NC2CC2)cc1NC(=O)c1cnn(-c2ncccc2C(F)(F)F)c1C [Form H-1, N-(5-(cyclopropylcarbamoyl)-2-methylphenyl)-5-methyl-1-(3-(trifluoromethyl)pyridin-2-yl)-1H-pyrazole-4-carboxamide]",aqueous solubility,[1],7 µg/mL
same,chemical and physical stability in the solid-state,[2]; [8],chemically and physically stable
same,chemical and physical stability in the solid-state,[2]; [9],chemically and physically stable
same,form conversion on drying,drying studies for H-1; dryer at 20-30% RH,no conversion was observed
same,form conversion on drying,drying studies for H-1; dryer maintained at 40° C. at RH 2.4-3.4%,converted to N-7
same,hygroscopicity,moisture sorption study; about 35 to about 75% RH,essentially non-hygroscopic
same,"water sorption, descending RH run",moisture sorption study; at 25% RH,partially dehydrated
same,RH at which the form is the more stable form,[3],≥ 30%
same,form conversion upon heating,"[4]; 90° C., 30 m, to neat form T1H1 (N-7)",converts topotactically
same,stability under reduced humidity,[4]; reduced humidity,unstable
Cc1ccc(C(=O)NC2CC2)cc1NC(=O)c1cnn(-c2ncccc2C(F)(F)F)c1C [Form M-4],stability of solvate,[5],relatively stable
"Cc1ccc(C(=O)NC2CC2)cc1NC(=O)c1cnn(-c2ncccc2C(F)(F)F)c1C [Form N-2, N-(5-(cyclopropylcarbamoyl)-2-methylphenyl)-5-methyl-1-(3-(trifluoromethyl)pyridin-2-yl)-1H-pyrazole-4-carboxamide]",aqueous solubility,[1],≥ 28 µg/mL
same,solubility ratio (N-2 to H-1),"[1]; aqueous solubility, N-2 relative to H-1",~4 ×
same,exposure for the N-2 relative to H-1,[6],~2 fold
same,chemical and physical stability in the solid-state,[2]; [8],chemically and physically stable
same,form conversion (hydrate formation) on storage,"[2]; stored 3 weeks or more at elevated temperature and humidity (e.g., 50° C./75% RH), in the presence of common filler excipients",no conversion
same,chemical and physical stability in the solid-state,[2]; [9],chemically and physically stable
same,hygroscopicity,moisture sorption study; about 25 to about 75% RH at 25° C.,non-hygroscopic
same,relative stability among polymorphic (neat) forms,[7]; at 25° C. and 50° C.,most stable polymorphic (neat) form
same,RH at which the form is the more stable form,[3],≤ 16%
"Cc1ccc(C(=O)NC2CC2)cc1NC(=O)c1cnn(-c2ncccc2C(F)(F)F)c1C [Form N-5, N-(5-(cyclopropylcarbamoyl)-2-methylphenyl)-5-methyl-1-(3-(trifluoromethyl)pyridin-2-yl)-1H-pyrazole-4-carboxamide]",relative stability N-5:N-6 (monotropes),[7]; N-5 versus N-6,more stable
"Cc1ccc(C(=O)NC2CC2)cc1NC(=O)c1cnn(-c2ncccc2C(F)(F)F)c1C [Form N-7, N-(5-(cyclopropylcarbamoyl)-2-methylphenyl)-5-methyl-1-(3-(trifluoromethyl)pyridin-2-yl)-1H-pyrazole-4-carboxamide]","relative stability of N-7 (monotropic with N-2, N-5 and N-6)","[7]; versus N-2, N-5 and N-6",less stable at all temperatures below 192 °C
Cc1ccc(C(=O)NC2CC2)cc1NC(=O)c1cnn(-c2ncccc2C(F)(F)F)c1C [dehydrated H-1],"water sorption, ascending RH run",moisture sorption study; between 75 and 95% RH,partially rehydrates to H-1
